Laboratory results taken from article PMC7170889, “Synthesis and evaluation of designed PKC modulators for enhanced cancer immunotherapy” (Nature Communications, 2020).

Tests used:
[1] = molecular target: T1, PKCα (Homo sapiens, UniProt P17252); test: PKC competitive binding assay with [3H]-phorbol dibutyrate (PKCα); details: cell-free, competition with [3H]-PDBu, PS vesicles; read-out: Ki PKCα
T1 construct: purchased Invitrogen
Method: (§1) With a panel of compounds bearing diverse functionality at C13, we began to explore how these modifications affect PKC binding and biological function. Because an obvious prerequisite for PKC pathway involvement is binding to PKC, compounds were initially evaluated for PKC affinity in a cell-free competitive binding assay with tritiated phorbol dibutyrate ([^3H]-PDBu). Assays were performed with representative members of both the conventional (PKCα) and novel (PKCδ) PKC families. Subsequently, compounds were assayed for PKC isoform translocation in real time in living cells using an optical assay. Translocation to the plasma membrane is the hallmark of PKC activation[18],[57],[60] and therefore monitoring the subcellular localization of a PKCδ-GFP fusion protein via confocal microscopy offers a convenient method for determining whether a compound enters a cell and engages its PKC isoform target. Finally and of clinical significance, we also determined the effect of compounds on CD22 surface expression in vitro in NALM6 cells, an ALL cell line previously studied in connection with CD22-targeted CAR T cell therapy, and two additional lymphoma cell lines[11],[31],[65].
(§2) PKC Binding Assay Protocol […]
(§3) competition with 3H-phorbol-12,13-dibutyrate (3H-PDBu) as described below. This procedure entails a glass-fiber filtration method to determine bound radioligand.
(§4) Preparation of PKC binding assay buffer
(§5) To a 50 mL polypropylene tube was added Tris-HCl (pH 7.4, 1 M, 1 mL), KCl (1 M, 2 mL), CaCl2 (0.1 M, 30 μL), and bovine serum albumin (BSA, 40 mg, Sigma-Aldrich). This mixture was diluted to 20 mL with deionized H2O and mixed gently. The buffer was stored on ice until use. The final […]
(§6) Supplementary Table1. PKC binding assay buffer composition.
(§7) Preparation of phosphatidylserine (PS) vesicles
(§8) For every two assays, 3.5 mg phosphatidylserine (Avanti Polar Lipids, porcine, 25 mg/mL CHCl3 solution) was concentrated by removing chloroform under a stream of nitrogen followed by reduced pressure. The solid PS was suspended as vesicles in freshly prepared PKC binding assay buffer (3.5 mL) by sonicating six times for 30 sec, with a 30 sec rest between sonications (Branson Sonifier 250, power = 2, 50% duty cycle). The resulting milky cloudy mixture (1 mg/mL) was stored […]
(§9) Preparation of PKC isoform solution
(§10) Assay PKC was prepared by dissolving a 4 μg aliquot of the indicated recombinant human PKC isoform (Invitrogen) into 11.6 mL of PKC binding assay buffer (this amount is sufficient for two assays). The diluted PKC was stored on ice for immediate use.
(§11) Preparation of 3H-PDBu solution
(§12) 3H-PDBu (American Radiolabeled Chemicals, Inc.; 1 mCi/mL acetone solution; specific activity: […]) was diluted 10-fold with DMSO. The resulting 500 nM stock solution was further diluted with DMSO to 30 nM.
(§13) Preparation of analog compound dilutions
(§14) Compound dilutions were prepared by serially diluting from a chosen "high" concentration by factors of 3 or 4. For each analog compound, seven concentrations were used to define the […]
(§15) To a polypropylene tube was added 3.3 mL of 1 mg/mL PS vesicles solution, 11 mL of PKC isoform solution, and 1.1 mL of 30 nM 3H-PDBu solution were added. The resulting solution was vortexed to mix and stored on ice.
(§16) PKC binding assay protocol
- Glass-fiber filters (Whatman GF/B) were prepared by soaking them in a solution of aqueous polyethyleneimine (10% by vol, 18 mL) in deionized water (600 mL) for ≥1h.
- 500 mL "rinsing buffer" of 20 mM Tris, pH 7.4 was cooled on ice for the duration of the incubation period and for the remainder of the assay.
Triplicate data points were obtained for each analog concentration. For each data point, 280 μL of "Master Mix" Solution and 20 μL of analog compound at a specified concentration were added to a polypropylene tube. Non-specific 3H-PDBu binding was assessed in triplicate by substitution

[2] = tested on: CD22 surface expression in NALM6 cells; test: CD22 surface expression in NALM6 cells (flow cytometry); type: cell-based, human; details: NALM6 cells at 1 nM relative to DMSO control, 24 h incubation, washout, 24 h sub-culture, n = 3; for fold induction at 0.001 µM: Homo sapiens, NALM-6, 24 h, read-out: Fold increase CD22 expression
Method: CD22 Surface Expression Protocol – NALM6 Cells […]
unless otherwise noted below) at 37 ° C in an incubator (5% CO2). Cell cultures were maintained […]
Cell suspension from a confluent T75 flask (Fisher) was transferred to a 15 mL falcon tube and centrifuged at 1100 rpm for 7 minutes. The supernatant was aspirated, and the cell pellet was […]
Cells were counted using a Countess II Automated Cell
199 µL of this stock was added to 24 wells (enough for triplicate measurements for 8 different experimental conditions) in a 96-well plate. Dosing was […]
each experiment. 1 µL of DMSO or the appropriate stock solution of compound in DMSO was added to each well. Cells were incubated for 24 hours, at which point the cell suspensions were transferred to 1.5 mL Eppendorf tubes and diluted with 1.0 mL of PBS (Hyclone, without Ca2+ or Mg2+). Samples were centrifuged at 2000 rpm for 5 min at RT. The supernatant was aspirated, […]
Cells were sub-cultured between 2 […]
surface expression was assayed by flow cytometry.
Cells from one well were counted using a Countess II Automated Cell Counter (Fisher). ~200,000 – 300,000 cells from each well were added to 1.5 mL Eppendorf tubes containing PBS (final volume ~1.2 mL). The cell suspensions were centrifuged at 1500 rpm for 7 minutes at 4 °C. The supernatant was aspirated, and the cell pellet was resuspended in 99 µL of pre-chilled FACS […]
buffer (0.5% w/v BSA in PBS). […]
minutes. Samples were then diluted with an additional 1.0 mL of FACS buffer and centrifuged at 1500 rpm for 7 minutes at 4 °C. The supernatant was aspirated, the cell pellets were resuspended in 200 µL FACS buffer, and the resulting suspensions were transferred to FACS tubes (Fisher, […]
Cells were stained with DAPI and CD22 surface expression was analyzed using the FACScan Analyzer at the Stanford Shared FACS Facility. Data analysis was performed using FlowJo and Microsoft Excel.

[3] = tested on: PKC; test: PKC competitive binding assay, isoform not specified; design: species or system human; details: conventional and novel PKC isoforms
Method: as §1, §2, §3, §4, §5, §6, §7, §8, §9, §10, §11, §12, §13, §14, §15, §16
- Glass-fiber filters (Whatman GF/B) were prepared by soaking them in a solution of […]

| SMILES | Ki [1] [nM] | fold induction at 0.001 µM [2] | Fold increase CD22 expression [2] [fold] | PKC binding affinity in words [3] |
| --- | --- | --- | --- | --- |
| CCCC=CC=CC(=O)OC1C(=CC(=O)OC)CC2CC(C(C)O)OC(=O)CC(O)CC3CC(OC(C)=O)C(C)(C)C(O)(CC4CC(=CC(=O)OCC)CC(C=CC(C)(C)C1(O)O2)O4)O3 (stereo not drawn) [SUW217] | 9.2 | 1.97 | – | – |
| CCCC=CC=CC(=O)OC1C(=CC(=O)OC)CC2CC(C(C)O)OC(=O)CC(O)CC3CC(OC(C)=O)C(C)(C)C(O)(CC4CC(OC(=O)CCc5c[nH]c6ccccc56)CC(C=CC(C)(C)C1(O)O2)O4)O3 (stereo not drawn) [SUW210] | 5.6 | 1.49 | – | – |
| CCCC=CC=CC(=O)OC1C(=CC(=O)OC)CC2CC(C(C)O)OC(=O)CC(O)CC3CC(OC(C)=O)C(C)(C)C(O)(CC4CC(OC(=O)CC56CC7CC(CC(C7)C5)C6)CC(C=CC(C)(C)C1(O)O2)O4)O3 (stereo not drawn) [SUW209] | 1.6 | 1.45 | – | – |
| CCC/C=C/C=C/C(=O)O[C@H]1/C(=C/C(=O)OC)C[C@H]2C[C@H]([C@@H](C)O)OC(=O)C[C@H](O)C[C@@H]3C[C@H](OC(C)=O)C(C)(C)[C@](O)(C[C@@H]4C[C@@H](OC(C)=O)C[C@H](/C=C/C(C)(C)[C@]1(O)O2)O4)O3 [SUW207] | 2 | – | 1.33 | – |
| CCCCCC#CC(=O)O[C@H]1/C(=C/C(=O)OC)C[C@H]2C[C@H]([C@@H](C)O)OC(=O)C[C@H](O)C[C@@H]3C[C@H](OC(C)=O)C(C)(C)[C@](O)(C[C@@H]4C[C@H](O)C[C@H](/C=C/C(C)(C)[C@]1(O)O2)O4)O3 [SUW204] | 1.4 | 0.98 | – | single-digit nanomolar |
| CCCC=CC=CC(=O)OC1C(=CC(=O)OC)CC2CC(C(C)O)OC(=O)CC(O)CC3CC(OC(C)=O)C(C)(C)C(O)(CC4CC(=CC(=O)OCC)CC(C=CC(C)(C)C1(O)O2)O4)O3 (stereo not drawn) [SUW218] | 7.1 | – | 1.92 | – |
| CCCC=CC=CC(=O)OC1C(=CC(=O)OC)CC2CC(C(C)O)OC(=O)CC(O)CC3CC(OC(C)=O)C(C)(C)C(O)(CC4CC(OC(=O)Nc5ccccc5)CC(C=CC(C)(C)C1(O)O2)O4)O3 (stereo not drawn) [SUW208] | 1 | 1.68 | – | – |
